Source: PubChem BioAssay (NCI)
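Method: 48-hour compound exposure of cells in 96-well plates, five concentrations, linear interpolation of endpoints. GI50 is the concentration that inhibits growth by half. At the TGI there is no net growth.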

Columns and labels:
Test in all cases: NCI-60 cell line screen, 48 h
A549 NSCLC = test system: A549 NSCLC
LOX IMVI melanoma = test system: LOX IMVI melanoma
IGROV1 ovarian = test system: IGROV1 ovarian
UO-31 renal = test system: UO-31 renal
MDA-MB-231 breast = test system: MDA-MB-231 breast
SK-MEL-5 melanoma = test system: SK-MEL-5 melanoma
EKVX NSCLC = test system: EKVX NSCLC
HOP-92 NSCLC = test system: HOP-92 NSCLC
MDA-N = test system: MDA-N
HT29 colon = test system: HT29 colon

Row | Structure (SMILES) | TGI (A549 NSCLC) | TGI (LOX IMVI melanoma) | TGI (IGROV1 ovarian) | GI50 (UO-31 renal) | TGI (UO-31 renal) | TGI (MDA-MB-231 breast) | TGI (SK-MEL-5 melanoma) | TGI (EKVX NSCLC) | GI50 (HOP-92 NSCLC) | TGI (HOP-92 NSCLC) | TGI (MDA-N) | TGI (HT29 colon)
1 | COc1ccc(/C=C2/C(=O)N(/C=C3\C(=O)Oc4ccccc4C3=O)C(=NC(C)=O)N2C)cc1OC | > 100 µM | > 100 µM | > 100 µM | > 100 µM | > 100 µM | > 100 µM | > 100 µM | > 100 µM | > 100 µM | > 100 µM | > 100 µM | > 100 µM
2 | COc1cc([N+](=O)[O-])cc2c1NC(=O)C2(C)SC (centres undefined) | > 100 µM | > 100 µM | > 100 µM |  | > 100 µM | > 100 µM | > 100 µM | > 100 µM |  |  | > 100 µM | > 100 µM
3 | O=C1c2ccccc2C(=O)c2c1sc1nc3ccccc3n21 | 25.1 µM |  | 6.34 µM |  | 3.89 µM | 9.12 µM | 43.3 µM | 4.6 µM |  | 74.1 µM | 3.49 µM | 13.8 µM
4 | Clc1ccc(C2=Cc3nc2c(-c2ccccc2)c2ccc([nH]2)c(-c2ccccc2)c2nc(c(-c4ccccc4)c4ccc([nH]4)c3-c3ccccc3)C=C2)cc1 | > 62.5 µM | > 62.5 µM | > 62.5 µM |  | > 62.5 µM | > 62.5 µM | > 62.5 µM | > 62.5 µM |  | > 62.5 µM | > 62.5 µM | > 62.5 µM
5 | O=S(=O)(N1CCCCN(S(=O)(=O)C(F)(F)F)CCCN(S(=O)(=O)C(F)(F)F)CCCCN(S(=O)(=O)C(F)(F)F)CCCN(S(=O)(=O)C(F)(F)F)CCCCN(S(=O)(=O)C(F)(F)F)CCCN(S(=O)(=O)C(F)(F)F)CCCCN(S(=O)(=O)C(F)(F)F)CCC1)C(F)(F)F | > 31.6 µM | > 31.6 µM | > 31.6 µM |  | > 31.6 µM | > 31.6 µM | > 31.6 µM | > 31.6 µM |  | > 31.6 µM | > 31.6 µM | > 31.6 µM
6 | CNC(=O)OCC1=C(COC(=O)NC)CN(c2ccc(OC)cc2)C1 | > 100 µM | > 100 µM | > 100 µM |  | > 100 µM | > 100 µM | > 100 µM | > 100 µM |  | > 100 µM | > 100 µM | > 100 µM
7 | CCCCCCCCCc1cc(=O)c2c(O)cc(O)cc2o1 | 35.5 µM | 44.7 µM | 32.4 µM |  | 32.6 µM | > 100 µM | 37.6 µM | 37.5 µM |  | 33.7 µM | > 100 µM | 34.4 µM
8 | c1cc2nnc1SCCSCCCSCCS2 | > 100 µM | > 100 µM | > 100 µM |  | > 100 µM | > 100 µM | > 100 µM | > 100 µM |  | > 100 µM | > 100 µM | > 100 µM
9 | Nc1nc(Cl)cc(NCC2(CO)CC=CC2)n1 | > 100 µM | > 100 µM | > 100 µM |  | > 100 µM | > 100 µM | > 100 µM | > 100 µM |  | > 100 µM | > 100 µM | > 100 µM
10 | COC(=O)C(Cc1ccccc1)NP(=O)(O)OCC1OC(n2ccc(N)nc2=O)C(O)C1O (centres undefined) | > 100 µM | > 100 µM | > 100 µM |  | > 100 µM | > 100 µM | > 100 µM | > 100 µM |  | > 100 µM | > 100 µM | > 100 µM
11 | CCCCCCCCCCCCCCCCCCOC(COP(=O)(O)OCC1OC(n2cc(F)c(=O)[nH]c2=O)CC1O)COP(=O)(O)OCC1OC(n2ccc(N)nc2=O)C(O)C1O (centres undefined) | > 63.6 µM | > 100 µM | > 100 µM |  | > 100 µM | > 100 µM | > 100 µM | > 100 µM |  | > 94.8 µM | > 100 µM | > 100 µM
12 | O=C1/C(=C\c2cccc(Oc3ccccc3)c2)SC(c2ccccc2)N1Cc1ccccc1 (centres undefined) | > 100 µM | 32 µM |  |  | > 100 µM | > 100 µM | 28 µM | > 100 µM |  | 60 µM | 52.3 µM | 51.2 µM
13 | CCOC(=O)n1ccc2c(C(=O)OC)c(C(=O)OC)cc(/C(=C/C(=O)OC)C(=O)OC)c21 | > 100 µM | > 100 µM | > 100 µM |  | > 100 µM | > 100 µM | > 100 µM | > 100 µM |  | > 100 µM | > 100 µM | > 100 µM
14 | O=c1[nH]nc(Cc2ccc(Cl)cc2)n1CCO | > 100 µM | > 100 µM | > 100 µM |  | > 100 µM | > 100 µM | > 100 µM | > 100 µM |  | > 100 µM | > 100 µM | > 100 µM
15 | CC(O)/C=C/C1OC(=O)CC1Nc1ccc(C=O)cc1 (centres undefined) | > 100 µM | > 100 µM | > 100 µM |  | > 100 µM | > 100 µM | 33.5 µM | > 100 µM |  | 66.5 µM | > 100 µM | > 100 µM
16 | CCC1=NC(N/N=C/c2ccco2)=N/C1=C\c1ccco1 | > 100 µM | > 100 µM | > 100 µM |  | > 100 µM | > 100 µM | > 100 µM | > 100 µM |  | > 100 µM | > 100 µM | > 100 µM
17 | COc1ccccc1CC1(O)OC(=O)c2ccccc21 (centres undefined) | > 100 µM | > 100 µM | > 100 µM |  | > 100 µM | > 100 µM | > 100 µM | > 100 µM |  | > 100 µM | > 100 µM | > 100 µM
18 | CCOC(=O)/C=C(\C(=O)OCC)n1cc(C)c(=O)n(Cc2cn(COCCOC(C)=O)nn2)c1=O | 56.8 µM | 35.8 µM | 31.1 µM |  | 26.9 µM | 40.7 µM | 50.5 µM | 22.5 µM |  | 3.91 µM | 50.8 µM | 20.9 µM
19 | CCCCCCCCCCCCCC/C(C(=O)O)=C(\C)C(=O)O | > 100 µM | > 100 µM | > 100 µM |  | > 100 µM | > 100 µM | > 100 µM | > 100 µM |  | > 100 µM | > 100 µM | > 100 µM
20 | C/C(=N\NC(N)=S)C(CN1CCCCC1)C(C1=C(O)c2ccccc2OC1)c1ccccc1 (centres undefined) | > 100 µM | > 100 µM | > 100 µM |  | > 100 µM | > 100 µM | > 100 µM | > 100 µM |  | > 100 µM | > 100 µM | > 100 µM
